Assay results: article PMC12316928, “Synthesis and evaluation of novel thiohydantoin derivatives for antidiabetic activity using in silico in vitro and in vivo methods” (Scientific Reports, 2025)
Converted amounts (≈) assume the structure as drawn. “And” between values parts separate entries of the source, which are not always exact repeats. Identical values can stand only once. “Also recorded” adds a separate entry of the source.

Assays:
[1] = DPPH free radical scavenging assay
Protocol: The antioxidant activity of synthesized compounds was evaluated using the DPPH free-radical scavenging assay, following the methodology outlined by[34]. This assay is based on the principle that the stable free radical DPPH undergoes a color change from deep purple to yellow upon reduction, indicating hydrogen donation from antioxidant compounds. Different concentrations (3.12, 6.25, 12.5, 25, 50, 100, and 200 µg/mL) of test compounds were prepared in methanol. A 200 µL aliquot of each concentration was mixed with 50 µL of freshly prepared DPPH solution (0.659 mM). The reaction mixtures were incubated at room temperature for 20 min in the dark. Absorbance was recorded at 510 nm using an ELISA microplate reader. Trolox was employed as the reference antioxidant, and the percentage of inhibition was calculated using the following equation:
% Inhibition = [(A0 − A1)/A0] × 100.
Where A0 is the absorbance of the control, and A1 is the absorbance of the sample[34].

Cytotoxicity MTT assay = type: cell-based; details: mouse, 3T3 fibroblast cells, 48 h, Mean ± SD, n = 3, read-out: IC₅₀ cytotoxicity MTT
Protocol: (§1) The cytotoxic effects of the selected compounds were evaluated against the 3T3 fibroblast cell line (Sigma-Aldrich, product no. 90020107) using the MTT (3-(4,5-dimethylthiazol-2-yl)−2,5-diphenyl tetrazolium bromide) assay, following the protocol established by Mosmann[38]. A cell suspension containing 1 × 10⁵ cells per well was seeded into a 96-well plate and incubated at 37 °C with 5% CO₂ for 48 h. The cells were then treated with different concentrations of test compounds (4, 16, 63, 250, and 1000 µg/mL, dissolved in DMSO) and incubated for an additional 48 h. Following incubation, 180 µL of MTT solution (5 mg/mL in PBS) was added to each well and incubated for 4 h. The formazan crystals formed were solubilized, and absorbance was measured at 570 nm using an ELISA reader. Celecoxib was used as a positive control.

3T3 fibroblast cell line = assay: Cytotoxicity MTT assay; type: cell-based
Protocol: as §1

[2] = tested on: STZ-induced diabetic rats; assay: Effect on FBG, body weight and HbA1C over 6 weeks; type: in vivo, Sprague Dawley rats; set-up: % Reduction in FBG: concentration or dose not given beside the values; details: for BW (Day 0) / FBG (Day 0): Day 0, baseline; for % Change in BW / % Reduction in FBG: Day 0 to Day 42; for BW (Day 42) / FBG (Day 42): Day 42 of treatment; for HbA1C: end of 6-week treatment
Protocol: (§2) Diabetes will be induced in rats (n = 6 per group) by a single intraperitoneal injection of 60-100 mg/kg body weight (BW) streptozotocin dissolved in normal saline. After 5 days of streptozotocin injection, the tail vein blood will be collected to determine the fasting blood glucose (FBG) level. Only rats with FBG over 200 mg/dl will be considered diabetic and used for further experimentation.
Diabetic Rats (n = 6 per group) will be randomly assigned to groups of six animals each in order to examine the impact of synthetic derivatives on FBG level, BW, and HbA1C. The course of treatment will last for six weeks. At the beginning of the experiment and at weekly intervals during the first 42 days of therapy, the FBG level and BW will be measured. Rats will be denied food for 12 h while fasting, but they will have unrestricted access to water. Commercial glucose oxidase kits will be used to measure the blood glucose level. Blood 7 will be collected through cardiac puncture at the end of study period and levels of HbA1C will be determined. Metformin will be used as standard for comparison purpose.

[3] = biological target: T1, α-glucosidase (EC3.2.1.20) (Saccharomyces cerevisiae, UniProt P53341); assay: α-Glucosidase inhibitory activity assay; type: biochemical; details: for inhibition at 200 µg/mL: read-out: %Inhibition (200 µg/ml) alpha glucosidase
T1 construct: purchased Sigma-Aldrich
Protocol: The ability of the synthesized compounds to inhibit α-glucosidase was determined as per the method described by[35]. […] After incubation at 37 °C for 10 min, the reaction was initiated by adding 25 µL of substrate (4 mM) and further incubating at 37 °C for 20 min. The absorbance was measured at 405 nm.

[4] = tested on: STZ-induced diabetic rats; assay: Fasting blood glucose and oral glucose tolerance test (OGTT); type: in vivo, Sprague Dawley rats; details: for OGTT (after 120 min): 120 min after glucose 2.0 g/kg; for Fasting blood glucose: Table 7, mean ± SD, 5 rats per group; for FBG and OGTT reduction in words: compared to diabetic control
Protocol: […] After 5 days of streptozotocin injection, the tail vein blood will be collected to determine the fasting blood glucose (FBG) level. Only rats with FBG over 200 mg/dl will be considered diabetic and used for further experimentation.
This assay will be performed in animals after fasting for an overnight (12 h). Then, rats will receive a bolus of glucose (2.0 g/kg body weight) followed by test molecule or control and plasma glucose will be measured from blood collected from tail vein at 0, 30, 60, 90 and 120 min after glucose administration. Plasma glucose levels will be analyzed using commercially available glucometer kits[40].

[5] = tested on: STZ-induced diabetic rats; assay: Physiological parameters (lipid profile); type: in vivo, Sprague Dawley rats; details: Fig. 1; for HDL / LDL / triglycerides: after treatment
Protocol: as §2
Animals will be sacrificed after […] of treatment and parameters including LDL, triglycerides, HDL cholesterol, and glucose will be determined by using KONELAB SYSTEM (Thermo Fisher Scientific, Finland) according to manufacturer’s guidelines.

[6] = relative to positive control (diabetic rats), Fig. 2

T1 sequence (P53341 whole entry): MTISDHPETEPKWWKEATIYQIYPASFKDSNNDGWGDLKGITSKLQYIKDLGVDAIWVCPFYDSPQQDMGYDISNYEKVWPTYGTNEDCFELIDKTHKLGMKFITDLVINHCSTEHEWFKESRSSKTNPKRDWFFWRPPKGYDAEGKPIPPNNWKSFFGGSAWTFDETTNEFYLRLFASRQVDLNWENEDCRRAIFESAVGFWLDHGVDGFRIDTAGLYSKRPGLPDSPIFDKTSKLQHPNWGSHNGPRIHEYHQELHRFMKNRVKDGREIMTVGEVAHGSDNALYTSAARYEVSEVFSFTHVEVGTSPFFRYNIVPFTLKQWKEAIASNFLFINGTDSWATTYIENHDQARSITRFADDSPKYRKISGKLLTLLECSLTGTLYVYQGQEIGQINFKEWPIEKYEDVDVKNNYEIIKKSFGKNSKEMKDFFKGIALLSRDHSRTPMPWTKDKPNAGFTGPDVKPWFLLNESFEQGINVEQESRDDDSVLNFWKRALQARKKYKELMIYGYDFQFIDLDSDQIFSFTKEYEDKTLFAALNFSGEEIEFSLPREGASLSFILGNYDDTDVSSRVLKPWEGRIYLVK

SMILES	DPPH free radical scavenging % inhibition ([1]; 3.12 µg/mL) [%]	DPPH free radical scavenging % inhibition ([1]; 6.25 µg/mL) [%]	DPPH free radical scavenging % inhibition ([1]; 12.5 µg/mL) [%]	DPPH free radical scavenging % inhibition ([1]; 25 µg/mL) [%]	DPPH free radical scavenging % inhibition ([1]; 50 µg/mL) [%]	DPPH free radical scavenging % inhibition ([1]; 100 µg/mL) [%]	DPPH free radical scavenging % inhibition ([1]; 200 µg/mL) [%]	IC50 at 48 h (Cytotoxicity MTT assay) [µg/mL]	Cytotoxicity category (3T3 fibroblast cell line)	BW (Day 0) [2] [g]	FBG (Day 0) [2] [mg/dL]	% Change in BW [2] [%]	% Reduction in FBG [2] [%]	BW (Day 42) [2] [g]	FBG (Day 42) [2] [mg/dL]	HbA1C [2]	inhibition at 200 µg/mL [3] [%]	OGTT (after 120 min) [4] [mg/dL]	Fasting blood glucose [4] [mg/dL]	FBG and OGTT reduction in words [4]	also measured
O=C1O[C@H]([C@@H](O)CO)C(O)=C1O [Ascorbic Acid, reference compound]	30.2 ± 1.9	50.6 ± 2.5	68.9 ± 2.8	82.3 ± 3.1	89.6 ± 3.3	94.2 ± 3.5	96.8 ± 3.7	–	–	–	–	–	–	–	–	–	–	–	–	–	–
Cc1ccc(-c2cc(C(F)(F)F)nn2-c2ccc(S(N)(=O)=O)cc2)cc1 [Celecoxib, reference compound]	–	–	–	–	–	–	–	342 ± 9.7 (≈ 897 µM)	Moderate cytotoxicity	–	–	–	–	–	–	–	–	–	–	–	–
O=C1CN(S(=O)(=O)c2cccc(C(=O)O)c2)C(=S)N1 [FP2, 3-(4-oxo-2-sulfanylideneimidazolidine-1-sulfonyl)benzoic acid]	18.4 ± 1.3	31.3 ± 1.9	47.6 ± 2.4	62.9 ± 2.8	74.5 ± 3.1	79.8 ± 3.2	82.6 ± 3.3	845 ± 12.7 (≈ 2810 µM)	Low cytotoxicity	218.3 ± 7.5	280.5 ± 10.1	−7.1	24.9	202.8 ± 7.9	210.7 ± 9.6	7.5% and 7.5 ± 0.4%	48.1 ± 0.94	288.0 ± 9.5	229.9 ± 7.6	significant reductions	IC₅₀ (concentration required to inhibit 50% of DPPH free radicals) [1]: 52.4 ± 2.5 µg/mL; percentage reduction in FBG [4, 6]: 18.5%; lipid profile effect in words [5]: moderate improvements
CC(=O)c1cccc(S(=O)(=O)N2CC(=O)NC2=S)c1 [FP4, 1-(3-acetylbenzene-1-sulfonyl)−2-sulfanylideneimidazolidin-4-one]	22.1 ± 1.5	38.2 ± 2.1	55.7 ± 2.6	71.6 ± 3.0	81.2 ± 3.5	85.9 ± 3.7	87.4 ± 3.9	598 ± 11.4 (≈ 2010 µM)	Moderate cytotoxicity	215.9 ± 7.8	279.1 ± 9.7	−4.7	28.9	205.7 ± 8.6	198.4 ± 8.3	7.2 ± 0.3%	51.4 ± 1.25	275.2 ± 9.1	218.4 ± 7.3	–	IC50 ([3]; Mean ± SD, read-out: IC50 alpha glucosidase (converted)): 434 µM; percentage reduction in FBG [4, 6]: 22.6%; percentage reduction in OGTT [4, 6]: 19.4%; HDL [5]: 42.3 ± 2.5 mg/dL; LDL [5]: 54.8 ± 3.1 mg/dL; triglycerides [5]: 112.5 ± 6.2 mg/dL
Cc1ccc(S(=O)(=O)N2CC(=O)NC2=S)cc1C(=O)O [FP5, 2-methyl-5-(4-oxo-2-sulfanylideneimidazolidine-1-sulfonyl)benzoic acid]	17.8 ± 1.2	29.6 ± 1.7	44.5 ± 2.3	58.7 ± 2.6	69.3 ± 2.9	73.1 ± 3.1	78.9 ± 3.3	690 ± 13.2 (≈ 2190 µM)	Low cytotoxicity	216.8 ± 8.1	281.0 ± 9.9	−7.7	21.6	200.1 ± 8.5	220.2 ± 9.2	7.8% and 7.8 ± 0.3%	33.2 ± 0.87	295.3 ± 9.9	236.1 ± 8.1	significant reductions	IC₅₀ (concentration required to inhibit 50% of DPPH free radicals) [1]: 58.1 ± 2.6 µg/mL; alpha-glucosidase inhibition in words [3]: inactive; percentage reduction in FBG [4, 6]: 16.3%; lipid profile effect in words [5]: moderate improvements
COc1ccc(S(=O)(=O)N2CC(=O)NC2=S)cc1C(=O)O [FP6, 2-methoxy-5-(4-oxo-2-sulfanylideneimidazolidine-1-sulfonyl)benzoic acid]	8.5 ± 0.8	16.2 ± 1.1	24.9 ± 1.6	36.4 ± 2.2	44.7 ± 2.5	49.8 ± 2.6	53.6 ± 2.8	> 900	negligible cytotoxicity; also recorded: Non-toxic	–	–	–	–	–	–	–	36.4 ± 1.03	307.5 ± 10.4	249.1 ± 8.5	minor reductions	IC₅₀ cytotoxicity MTT (3T3 fibroblast cell line; 48 h, Mean ± SD, n = 3): 930.4 ± 10.6 µg/mL; alpha-glucosidase inhibition in words [3]: inactive
CN(C)C(=N)N=C(N)N [Metformin, reference compound]	–	–	–	–	–	–	–	–	–	216.2 ± 8.0	282.3 ± 10.5	–	49.5	225.6 ± 9.4	142.5 ± 7.8	6.1 ± 0.3%	–	159.4 ± 8.3	119.2 ± 6.5	–	HDL [5]: 49.2 ± 2.7 mg/dL; LDL [5]: 45.1 ± 2.4 mg/dL; triglycerides [5]: 94.3 ± 5.1 mg/dL
OCCN1C[C@H](O)[C@@H](O)[C@H](O)[C@H]1CO [Miglitol, reference compound]	–	–	–	–	–	–	–	–	–	–	–	–	–	–	–	–	–	–	–	–	inhibition at 50 µg/mL ([3]; read-out: %Inhibition alpha glucosidase): 87.9 ± 1.09%
